Results taken from ChEMBL document CHEMBL4368891, “Conformationally restricted quinazolone derivatives as PI3Kδ-selective inhibitors: the design, synthesis and biological evaluation” (Medchemcomm, 2019).
pIC50: −log10 of the molar value. The source made the active and inactive calls. The rule behind the calls is not given here.

Columns and labels:
[1] = target: T1, Phosphatidylinositol 4,5-bisphosphate 3-kinase catalytic subunit delta isoform (Homo sapiens, UniProt O00329); assay: Inhibition of PI3Kdelta (unknown origin) using PIP2 as substrate after 2 hrs by ADP-Glo assay
T1 sequence (O00329 whole entry): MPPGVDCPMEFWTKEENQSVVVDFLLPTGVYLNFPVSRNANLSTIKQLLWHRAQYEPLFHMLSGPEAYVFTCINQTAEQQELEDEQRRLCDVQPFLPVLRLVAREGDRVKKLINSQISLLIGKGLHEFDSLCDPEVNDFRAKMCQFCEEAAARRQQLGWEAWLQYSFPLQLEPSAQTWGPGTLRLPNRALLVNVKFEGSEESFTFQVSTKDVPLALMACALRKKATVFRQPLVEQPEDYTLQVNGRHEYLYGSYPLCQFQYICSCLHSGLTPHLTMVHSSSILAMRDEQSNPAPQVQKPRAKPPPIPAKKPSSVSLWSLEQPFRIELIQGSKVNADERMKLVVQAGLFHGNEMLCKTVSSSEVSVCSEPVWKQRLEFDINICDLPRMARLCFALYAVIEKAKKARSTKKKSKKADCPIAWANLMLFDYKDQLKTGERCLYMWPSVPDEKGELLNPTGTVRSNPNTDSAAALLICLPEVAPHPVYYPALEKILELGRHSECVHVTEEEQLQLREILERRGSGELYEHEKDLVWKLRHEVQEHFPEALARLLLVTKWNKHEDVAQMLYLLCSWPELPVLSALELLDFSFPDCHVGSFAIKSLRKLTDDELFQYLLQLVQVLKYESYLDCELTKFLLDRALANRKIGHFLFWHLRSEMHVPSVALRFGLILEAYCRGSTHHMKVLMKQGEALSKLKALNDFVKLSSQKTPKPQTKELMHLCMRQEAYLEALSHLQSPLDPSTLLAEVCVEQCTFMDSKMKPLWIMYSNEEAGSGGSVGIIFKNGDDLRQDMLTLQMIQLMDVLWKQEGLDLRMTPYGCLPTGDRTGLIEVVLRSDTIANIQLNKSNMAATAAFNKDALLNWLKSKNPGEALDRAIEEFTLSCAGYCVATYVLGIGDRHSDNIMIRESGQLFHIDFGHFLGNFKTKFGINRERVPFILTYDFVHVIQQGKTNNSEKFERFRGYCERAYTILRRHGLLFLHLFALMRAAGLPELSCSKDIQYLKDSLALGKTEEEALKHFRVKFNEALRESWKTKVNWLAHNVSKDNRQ

SU-DHL-6 = assay: Antiproliferative activity against human SU-DHL6 cells after 72 hrs by CellTiter-Glo luminescent cell viability assay; format: functional; settings: SU-DHL-6, 72 h
[2] = target: Phosphatidylinositol 4,5-bisphosphate 3-kinase catalytic subunit gamma isoform (Homo sapiens, UniProt P48736); assay: Inhibition of PI3Kgamma (unknown origin) using PIP2 as substrate after 2 hrs by ADP-Glo assay
in vitro [3] = settings: rat, liver microsomes
Description: Intrinsic clearance in rat liver microsomes assessed per mg protein in presence of NADPH by LC-MS/MS analysis

in vitro [4] = settings: human, liver microsomes
Description: Half life in human liver microsomes in presence of NADPH by LC-MS/MS analysis

[5] = target: Phosphatidylinositol 4,5-bisphosphate 3-kinase catalytic subunit alpha isoform (Homo sapiens, UniProt P42336); assay: Inhibition of PI3Kalpha (unknown origin) using PIP2 as substrate after 2 hrs by ADP-Glo assay
in vitro [6] = settings: human, liver microsomes; remark: listed apart in the source
Description: Intrinsic clearance in human liver microsomes assessed per mg protein in presence of NADPH by LC-MS/MS analysis

in vitro [7] = settings: rat, liver microsomes; remark: listed apart in the source
Description: Metabolic stability in rat liver microsomes assessed as compound remaining after 60 mins in presence of NADPH by LC-MS/MS analysis

[8] = target: Phosphatidylinositol 4,5-bisphosphate 3-kinase catalytic subunit beta isoform (Homo sapiens, UniProt P42338); assay: Inhibition of PI3Kbeta (unknown origin) using PIP2 as substrate after 2 hrs by ADP-Glo assay
[9] = human, microsomes
Description: Intrinsic clearance in liver by measuring in intrinsic clearance in human liver microsomes in presence of NADPH by LC-MS/MS analysis

in vitro [10] = settings: human, liver microsomes; remark: listed apart in the source
Description: Metabolic stability in human liver microsomes assessed as compound remaining after 60 mins in presence of NADPH by LC-MS/MS analysis

[11] = rat, microsomes
Description: Intrinsic clearance in liver by measuring in intrinsic clearance in rat liver microsomes in presence of NADPH by LC-MS/MS analysis

in vitro [12] = settings: rat, liver microsomes; remark: listed apart in the source
Description: Half life in rat liver microsomes in presence of NADPH by LC-MS/MS analysis

[13] = AUC (0 to last) in Sprague-Dawley rat at 10 mg/kg, po administered via gavage by LC-MS/MS analysis; format: ADME, organism-based; set-up: dose 10 mg/kg, time 0 - last, route oral; settings: in vivo
[14] = target: T2, Phosphatidylinositol 4,5-bisphosphate 3-kinase catalytic subunit delta isoform (Homo sapiens) (UniProt O00329); assay: Inhibition of PI3Kdelta in human SU-DHL6 cells assessed as reduction in S6K1 phosphorylation at T389 residue a at 100 nM after 2 hrs by Western blot analysis; format: cell-based
T2 sequence (whole entry): T1 sequence (O00329 whole entry)

[15] = target: T2, Phosphatidylinositol 4,5-bisphosphate 3-kinase catalytic subunit delta isoform (Homo sapiens); assay: Inhibition of PI3Kdelta in human SU-DHL6 cells assessed as reduction in S6K1 phosphorylation at T389 residue after 2 hrs by Western blot analysis; format: cell-based
[16] = target: T2, Phosphatidylinositol 4,5-bisphosphate 3-kinase catalytic subunit delta isoform (Homo sapiens); assay: Inhibition of PI3Kdelta in human SU-DHL6 cells assessed as reduction in Akt phosphorylation at S473 residue at 100 nM after 2 hrs by Western blot analysis; format: cell-based
[17] = Half life in Sprague-Dawley rat at 10 mg/kg, po administered via gavage by LC-MS/MS analysis; format: ADME, organism-based; settings: in vivo
[18] = target: T2, Phosphatidylinositol 4,5-bisphosphate 3-kinase catalytic subunit delta isoform (Homo sapiens); assay: Inhibition of PI3Kdelta in human SU-DHL6 cells assessed as reduction in Akt phosphorylation at S473 residue after 2 hrs by Western blot analysis; format: cell-based

Sequence of Phosphatidylinositol 4,5-bisphosphate 3-kinase catalytic subunit beta isoform (P42338 whole entry, canonical isoform): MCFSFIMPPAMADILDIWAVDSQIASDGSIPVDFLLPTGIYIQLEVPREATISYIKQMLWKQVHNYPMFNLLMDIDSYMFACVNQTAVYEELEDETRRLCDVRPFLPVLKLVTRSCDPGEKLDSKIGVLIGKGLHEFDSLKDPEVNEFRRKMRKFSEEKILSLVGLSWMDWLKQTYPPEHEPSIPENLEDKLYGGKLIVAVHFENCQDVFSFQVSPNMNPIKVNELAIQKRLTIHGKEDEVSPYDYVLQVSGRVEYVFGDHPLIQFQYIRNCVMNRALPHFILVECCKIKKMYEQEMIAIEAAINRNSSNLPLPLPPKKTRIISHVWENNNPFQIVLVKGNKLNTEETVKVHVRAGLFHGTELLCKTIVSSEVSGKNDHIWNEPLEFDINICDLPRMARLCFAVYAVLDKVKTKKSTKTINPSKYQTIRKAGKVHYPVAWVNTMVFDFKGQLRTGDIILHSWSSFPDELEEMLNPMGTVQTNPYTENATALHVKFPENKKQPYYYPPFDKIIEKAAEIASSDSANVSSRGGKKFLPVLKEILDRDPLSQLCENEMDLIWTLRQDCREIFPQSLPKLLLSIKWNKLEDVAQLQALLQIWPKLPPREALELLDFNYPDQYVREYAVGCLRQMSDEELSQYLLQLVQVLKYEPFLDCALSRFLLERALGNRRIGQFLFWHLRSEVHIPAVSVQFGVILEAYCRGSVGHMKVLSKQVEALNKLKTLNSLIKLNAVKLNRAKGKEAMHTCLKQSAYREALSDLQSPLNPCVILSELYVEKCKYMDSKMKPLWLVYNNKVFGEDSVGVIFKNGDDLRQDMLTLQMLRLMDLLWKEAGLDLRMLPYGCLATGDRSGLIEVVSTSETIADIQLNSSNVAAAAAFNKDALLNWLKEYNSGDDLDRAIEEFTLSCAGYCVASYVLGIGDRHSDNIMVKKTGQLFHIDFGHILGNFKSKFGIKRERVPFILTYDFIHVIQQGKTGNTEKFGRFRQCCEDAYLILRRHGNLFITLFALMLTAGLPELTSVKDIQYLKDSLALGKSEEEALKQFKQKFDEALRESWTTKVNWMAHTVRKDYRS
Sequence of Phosphatidylinositol 4,5-bisphosphate 3-kinase catalytic subunit alpha isoform (P42336 whole entry, canonical isoform): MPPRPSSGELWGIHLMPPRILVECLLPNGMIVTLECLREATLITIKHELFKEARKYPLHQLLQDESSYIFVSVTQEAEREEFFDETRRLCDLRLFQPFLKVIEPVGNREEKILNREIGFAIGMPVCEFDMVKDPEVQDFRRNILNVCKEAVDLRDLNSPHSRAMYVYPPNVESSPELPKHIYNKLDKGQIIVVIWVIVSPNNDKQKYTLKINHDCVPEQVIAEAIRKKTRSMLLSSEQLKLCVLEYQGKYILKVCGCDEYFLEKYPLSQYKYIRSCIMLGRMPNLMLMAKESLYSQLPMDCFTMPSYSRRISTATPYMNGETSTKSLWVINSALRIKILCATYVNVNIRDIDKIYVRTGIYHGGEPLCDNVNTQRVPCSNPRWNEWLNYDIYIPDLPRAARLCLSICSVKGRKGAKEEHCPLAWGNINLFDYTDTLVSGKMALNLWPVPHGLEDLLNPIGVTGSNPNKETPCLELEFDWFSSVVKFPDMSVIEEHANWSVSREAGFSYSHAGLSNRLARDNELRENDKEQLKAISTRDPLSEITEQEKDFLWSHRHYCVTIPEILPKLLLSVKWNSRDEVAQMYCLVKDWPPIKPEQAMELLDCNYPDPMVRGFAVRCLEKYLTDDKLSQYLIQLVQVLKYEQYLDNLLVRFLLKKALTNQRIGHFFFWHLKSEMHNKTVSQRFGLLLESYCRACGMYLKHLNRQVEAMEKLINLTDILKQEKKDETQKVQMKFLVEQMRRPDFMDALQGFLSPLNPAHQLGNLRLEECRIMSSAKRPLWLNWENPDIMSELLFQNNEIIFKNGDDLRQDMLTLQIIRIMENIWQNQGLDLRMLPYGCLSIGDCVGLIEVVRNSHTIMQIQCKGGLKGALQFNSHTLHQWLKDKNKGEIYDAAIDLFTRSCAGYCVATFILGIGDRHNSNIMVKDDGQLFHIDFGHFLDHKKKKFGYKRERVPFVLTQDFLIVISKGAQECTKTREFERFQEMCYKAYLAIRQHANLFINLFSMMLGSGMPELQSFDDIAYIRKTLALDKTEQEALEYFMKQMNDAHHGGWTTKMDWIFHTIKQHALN
Sequence of Phosphatidylinositol 4,5-bisphosphate 3-kinase catalytic subunit gamma isoform (P48736 whole entry, canonical isoform): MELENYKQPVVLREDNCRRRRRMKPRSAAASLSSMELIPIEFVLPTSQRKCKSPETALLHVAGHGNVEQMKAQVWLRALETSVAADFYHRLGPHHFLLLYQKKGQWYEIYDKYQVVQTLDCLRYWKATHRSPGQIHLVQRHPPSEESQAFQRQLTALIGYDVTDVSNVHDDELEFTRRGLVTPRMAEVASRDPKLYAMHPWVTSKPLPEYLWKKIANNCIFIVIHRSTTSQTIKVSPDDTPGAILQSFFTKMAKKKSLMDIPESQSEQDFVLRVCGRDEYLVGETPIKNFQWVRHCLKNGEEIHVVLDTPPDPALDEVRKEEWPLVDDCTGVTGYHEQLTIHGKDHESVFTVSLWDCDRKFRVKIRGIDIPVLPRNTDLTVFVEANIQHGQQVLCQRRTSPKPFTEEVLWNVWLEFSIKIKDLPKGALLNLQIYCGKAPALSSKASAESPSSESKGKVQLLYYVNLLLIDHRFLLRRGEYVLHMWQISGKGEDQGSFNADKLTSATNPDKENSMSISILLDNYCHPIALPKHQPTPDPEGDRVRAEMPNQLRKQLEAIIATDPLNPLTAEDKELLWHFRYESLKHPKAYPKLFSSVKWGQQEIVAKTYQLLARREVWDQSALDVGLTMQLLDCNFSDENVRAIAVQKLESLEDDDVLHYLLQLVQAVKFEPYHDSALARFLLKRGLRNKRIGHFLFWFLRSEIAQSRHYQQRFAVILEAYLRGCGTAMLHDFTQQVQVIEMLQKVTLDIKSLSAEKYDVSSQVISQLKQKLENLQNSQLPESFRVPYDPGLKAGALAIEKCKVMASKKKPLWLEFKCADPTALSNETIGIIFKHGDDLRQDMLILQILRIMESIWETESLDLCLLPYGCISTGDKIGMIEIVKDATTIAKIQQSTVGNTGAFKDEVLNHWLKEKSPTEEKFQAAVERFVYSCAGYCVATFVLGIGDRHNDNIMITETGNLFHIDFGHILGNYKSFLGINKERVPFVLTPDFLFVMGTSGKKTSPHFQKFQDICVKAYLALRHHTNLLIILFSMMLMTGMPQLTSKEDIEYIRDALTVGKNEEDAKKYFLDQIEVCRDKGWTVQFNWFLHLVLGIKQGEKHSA

## O=c1c2c(F)cccc2nc([C@@H]2CCCN2c2ncnc3[nH]cnc23)n1C1CCC1
[1]
  pIC50: 6.20
SU-DHL-6
  GI50: 630 nM

## CC[C@H](Nc1ncnc2[nH]cnc12)c1nc2cccc(F)c2c(=O)n1-c1ccccc1 [IDELALISIB]
SU-DHL-6
  GI50: 20 nM

## CCCCn1c([C@@H]2CCCN2c2ncnc3[nH]cnc23)nc2cccc(F)c2c1=O
[1]
  pIC50: 7.38
SU-DHL-6
  GI50: 640 nM

## N#Cc1c(N)ncnc1N1CCC[C@H]1c1nc2cccc(F)c2c(=O)n1Cc1ccccc1
[2]
  pIC50: 6.23
[1]
  pIC50: 7.66
In vitro [3]
  microsomal CLint: 865 µL/min/mg
In vitro [4]
  half-life: 31.1 min
[5]
  pIC50: 5.31
In vitro [6]
  microsomal CLint: 44.6 µL/min/mg
In vitro [7]
  remaining at 1 h: 0.1%
[8]
  pIC50: 5.21
[9]
  CLH: 0.0401 mL/min/kg
In vitro [10]
  remaining at 1 h: 25.5%
[11]
  CLH: 1.5571 mL/min/kg
SU-DHL-6
  GI50: 330 nM
In vitro [12]
  half-life: 1.6 min

## O=c1c2c(F)cccc2nc([C@@H]2CCCN2c2nc(F)nc3[nH]cnc23)n1Cc1ccccc1
[1]
  pIC50: 7.04
SU-DHL-6
  GI50: 380 nM

## O=c1c2c(F)cccc2nc([C@@H]2CCCN2c2ncnc3[nH]cnc23)n1C1CCCC1
[1]
  pIC50: 7.42
SU-DHL-6
  GI50: 2650 nM

## O=c1c2ccccc2nc([C@@H]2CCCN2c2ncnc3[nH]cnc23)n1Cc1ccccc1
[1]
  pIC50: 6.30
SU-DHL-6
  GI50: 580 nM

## O=c1c2c(F)cccc2nc([C@@H]2CCCN2c2nc(F)nc3[nH]cnc23)n1C1CCCC1
[1]
  pIC50: 6.75
SU-DHL-6
  GI50: 1890 nM

## N#Cc1c(N)ncnc1N1CCC[C@H]1c1nc2cccc(F)c2c(=O)n1C1CCCC1
[13]
  AUC(0-t): 50.8 ng·h/mL
[2]
  pIC50: 6.45
[1]
  pIC50: 8.20
In vitro [3]
  microsomal CLint: 91.7 µL/min/mg
In vitro [4]
  half-life: 17.5 min
[5]
  pIC50: 5.07
In vitro [6]
  microsomal CLint: 79.2 µL/min/mg
In vitro [7]
  remaining at 1 h: 6.2%
[8]
  pIC50: 5.81
[9]
  CLH: 0.0713 mL/min/kg
[14]
  inhibition: Active
In vitro [10]
  remaining at 1 h: 9.1%
[15]
  inhibition: Dose-dependent effect
[16]
  inhibition: Active
[11]
  CLH: 0.1651 mL/min/kg
SU-DHL-6
  GI50: 210 nM
[17]
  half-life: 246 min
[18]
  inhibition: Dose-dependent effect
In vitro [12]
  half-life: 15.1 min

## C[C@]12CC[C@H]3[C@@H](CCC4=CC(=O)CC[C@@]43C)[C@@H]1CC[C@@H]2O [TESTOSTERONE]
[9]
  CLH: 0.0911 mL/min/kg
[11]
  CLH: 3.7756 mL/min/kg

## O=c1c2c(F)cccc2nc([C@@H]2CCCN2c2ncnc3[nH]cnc23)n1Cc1ccccc1
[1]
  pIC50: 7.24
SU-DHL-6
  GI50: 480 nM

## O=C(O)Cc1ccccc1Nc1c(Cl)cccc1Cl [DICLOFENAC]
[11]
  CLH: 0.143 mL/min/kg

## O=c1c2c(F)cccc2nc([C@@H]2CCCN2c2ncnc3[nH]cnc23)n1C1CCCCC1
[1]
  pIC50: 7.48
SU-DHL-6
  GI50: 510 nM
